Test results published in patent publication US20040023945A1, “CYCLIC AMP-SPECIFIC PHOSPHODIESTERASE INHIBITORS” (ICOS Corporation, priority 1999, published 2004).
pEC50, pIC50: −log10 of the molar value. Like-named read-outs stand apart in the source and are kept apart here.

Columns and labels:
[1] = system: human peripheral blood lymphocytes; test: Lipopolysaccharide-stimulated TNFα release from human peripheral blood lymphocytes; format: cell-based; conditions: LPS-stimulated TNFα release from human PBL, read-out: PBL/TNFα EC50
Method: The compounds of structural formula (II) also were tested for an ability to reduce TNFα secretion in human peripheral blood lymphocytes. The ability to reduce TNFα secretion is related to the EC50 values (i.e., the effective concentration of the compound capable of inhibiting 50% of the total TNFα).
To assess the ability of a compound to reduce TNFα secretion in human peripheral blood lymphocytes (PBL), the following tests were performed.
Heparinized blood (approximately 30 mL) drawn from human volunteers was mixed 1:1 with Dulbecco's modified phosphate-buffered saline. This mixture was mixed 1:1 with HISTOPAQUE® and centrifuged at 1,500 rpm at room temperature without braking in the swinging bucket of a Beckman model TJ6 centrifuge. Erythrocytes were centrifuged to the bottom of the tubes, and serum remained at the surface of the tubes. A layer containing lymphocytes sedimented between the serum and HISTOPAQUE® layers, and was removed by aspiration to a fresh tube. The cells were quantified and adjusted to 3×10^6 cells/mL and a 100 μL aliquot is placed into the wells of a 96 well plate. Test compounds and RPMI media (Gibco/BRL Life Sciences) are added to each of the wells 15 minutes prior to addition of bacterial LPS ([…]). The mixture was allowed to incubate for 20 hours at 37° C. in a humidified chamber. The cells then were separated by centrifuging at 800 rpm for 5 minutes at room temperature. An aliquot of 180 μL of supernatant was transferred to a new plate for determination of TNFα concentration. TNFα protein in the cell supernatant fluids was measured using a commercially available enzyme-linked immunosorbent assay (ELISA) (CYTOSCREEN® Immunoassay Kit from Biosource International).
The cell-based assay provided the following results for various pyrrolidine compounds of the present invention. The EC50 values (i.e., effective concentration of the compound capable of inhibiting 50% of the total TNFα) illustrate the ability of the present compounds to inhibit LPS-stimulated TNFα release from human PBL.

[2] = system: serum TNFα levels in LPS-injected mice; test: Inhibition of serum TNFα levels in LPS-injected mice (Mouse/TNFα ED50); format: in vivo; conditions: stereoisomer comparison table
Method: In order to assess the ability of a compound to reduce serum TNFα levels in mammals, the following protocol was employed. […] Accordingly, in vivo efficacy of a PDE4 reducing compound was shown by dosing with compound and measuring reduction of serum TNFα levels in LPS-injected mice. Female C3H mice, 20-25 gm body weight, were fasted overnight and dosed intraperitoneally with test compound in appropriate vehicle 60 minutes before LPS injection. Five μg of LPS was then injected intraperitoneally into the mice. Ninety minutes after LPS injection, mice were bled from the heart. Blood was allowed to clot overnight at 4° C. Samples were centrifuged for 10 minutes in a microcentrifuge and the serum removed and stored at −20° C. until analysis. Serum levels of TNFα were subsequently measured using a commercially available ELISA kit (Genzyme) following the protocol enclosed in the kit. The percent of inhibition of serum TNFα levels caused by the compound was determined relative to serum TNFα levels in control mice receiving vehicle alone. […]

[3] = system: mouse; test: Subjective assessment of mouse immobility (CNS side effects); format: in vivo; conditions: subjective assessment of mouse immobility, i.p. 1, 10 and 100 mg/kg, 60 minutes
[4] = system: recombinant human PDE4; test: Inhibition of recombinant human PDE4 (cAMP hydrolysis); conditions: read-out: PDE4 IC50

Row | pEC50 ([1]; Homo sapiens, Lymphocyte) | SMILES | also measured
1 | 6.03 | COc1ccc([C@@H]2CN(C(=O)[C@H](N)C(C)C)C[C@@]2(C)[C@@H](C)O)cc1OC1CCCC1 [Example 87, (2R)-1-[3-((1R)-1-Hydroxyethyl)(3S,4S)-4-(3-cyclopentyloxy-4-methoxyphenyl)-3-methylpyrrolidinyl]-2-amino-3-methylbutan-1-one] | 
2 | 6.20 | COc1ccc([C@@H]2CN(C(=O)C(=O)N3CCCCC3)C[C@@]2(C)[C@@H](C)O)cc1OC1CCCC1 [Example 81, 1-[3-((1R)-1-Hydroxyethyl)(3S,4S)-4-(3-cyclopentyloxy-4-methoxyphenyl)-3-methylpyrrolidinyl]-2-piperidylethane-1,2-dione] | 
3 | 6.31 | COc1ccc([C@@H]2CN(C(=O)C(=O)NC3CCCC3)C[C@@]2(C)[C@@H](C)O)cc1OC1CCCC1 [Example 82, 2-[3-((1R)-1-Hydroxyethyl)(3S,4S)-4-(3-cyclopentyloxy-4-methoxyphenyl)-3-methylpyrrolidinyl]-N-cyclopentyl-2-oxoacetamide] | 
4 | 7.40 | CCCC[C@@H](NC(=O)OCc1ccccc1)C(=O)N1C[C@@H](c2ccc(OC)c(OC3CCCC3)c2)[C@](C)([C@@H](C)O)C1 [Example 84, N-{(1R)-2-[3-((1R)-1-Hydroxyethyl)(3S,4S)-4-(3-cyclopentyloxy-4-methoxyphenyl)-3-methylpyrrolidinyl]-1-butyl-2-oxoethyl}(phenylmethoxy)carboxamide] | 
5 | 5.89 | COc1ccc([C@@H]2CN(C(=O)C(N)=O)C[C@@]2(C)[C@@H](C)O)cc1OCC1CC1 [Example 78, 2-[(3S,4S)-4-(3-Cyclopropylmethoxy-4-methoxyphenyl)-3-((R)-1-hydroxyethyl)-3-methylpyrrolidin-1-yl]-2-oxo-acetamide] | 
6 | 6.07 | COc1ccc([C@@H]2CN(C(=O)[C@@H](O)C3CCCCC3)C[C@@]2(C)[C@@H](C)O)cc1OC1CCCC1 [Example 89, 1-[3-((1R)-1-Hydroxyethyl)(3S,4S)-4-(3-cyclopentyloxy-4-methoxyphenyl)-3-methylpyrrolidinyl](2S)-2-cyclohexyl-2-hydroxyethan-1-one] | 

The remaining lines, values behind:

Row | SMILES | pEC50 ([1]; Homo sapiens, Lymphocyte) | also measured
7 | COC(=O)N1C[C@@H](c2ccc(OC)c(OC3Cc4ccccc4C3)c2)[C@](C)(C(C)O)C1 (some centres unmarked) [Sample No. 62] |  | pEC50 [1]: 7.99; Mouse/TNFα ED50 [2]: 0.08 mg/kg; CNS Side Effects [3]: Little to no effect (at 50 mg/kg); pIC50 ([4]; human recombinant PDE4): 8.17; pIC50 ([4]; stereoisomer comparison table): 8.17
8 | COc1ccc([C@@H]2CN(C(=O)COCc3ccccc3)C[C@@]2(C)[C@@H](C)O)cc1OC1CCCC1 [Example 64, 1-[3-((1R)-1-Hydroxyethyl)(3S,4S)-4-(3-cyclopentyloxy-4-methoxyphenyl)-3-methylpyrrolidinyl]-2-(phenylmethoxy)ethan-1-one] | 7.44 | 
9 | COC(=O)N1CC(c2ccc(OC)c(OC3CCCC3)c2)[C@](C)([C@H](C)O)C1 (some centres unmarked) [(D)] |  | CNS Side Effects [3]: No effect; pIC50 ([4]; stereoisomer comparison table): 6.29
10 | COc1ccc([C@@H]2CN(C(=O)C(N)=O)C[C@@]2(C)[C@@H](C)O)cc1OCCCOc1ccc(F)cc1 [Example 77, 2-[(3S,4S)-4-{3-[3-(4-Fluorophenoxy)propoxy]-4-methoxyphenyl}-3-((R)-1-hydroxyethyl)-3-methylpyrrolidin-1-yl]-2-oxo-acetamide] | 6.24 | 
11 | COc1ccc([C@@H]2CN(c3cccnc3)C[C@@]2(C)[C@@H](C)O)cc1OC1CCCC1 [Example 35, (1R)-1-[(3S,4S)-4-(3-Cyclopentyloxy-4-methoxyphenyl)-3-methyl-1-(3-pyridyl)pyrrolidin-3-yl]ethan-1-ol] | 7.69 | 
12 | COc1ccc([C@@H]2CN(C(=O)[C@H](OC(C)=O)C3CCCCC3)C[C@@]2(C)[C@@H](C)O)cc1OC1CCCC1 [Example 90, 1-[3-((1R)-1-Hydroxyethyl)(3S,4S)-4-(3-cyclopentyloxy-4-methoxyphenyl)-3-methylpyrrolidinyl](2R)-2-cyclohexyl-2-acetoxyethan-1-one] | 7.21 | 
13 | COC(=O)N1C[C@@H](c2ccc(OC)c(OC3CCCC3)c2)[C@](C)(C(C)(C)O)C1 (racemic) [Example 1, (±)-4-(3-Cyclopentyloxy-4-methoxyphenyl)-3-(1-hydroxy-1-methylethyl)-3-methylpyrrolidine-1-carboxylic acid methyl ester] | 5.92 | 
14 | COC(=O)N1C[C@@H](c2ccc(OC)c(OC3Cc4ccccc4C3)c2)[C@](C)(C(C)O)C1 (mixture of isomers) [Example 4, trans-(±)-3-(1-Hydroxyethyl)-4-[3-(indan-2-yloxy)-4-methoxyphenyl]-3-methylpyrrolidine-1-carboxylic acid methyl ester] | 5.44 | 
15 | COc1ccc([C@@H]2CN(C(=O)CO)C[C@@]2(C)[C@@H](C)O)cc1OC1CCCC1 [Example 65, 1-(3-((1R)-1-Hydroxyethyl)(3S,4S)-4-(3-cyclopentyloxy-4-methoxyphenyl)-3-methylpyrrolidinyl]-2-hydroxyethan-1-one] | 6.74 | 
16 | COc1ccc([C@@H]2CN(C(=O)CO)C[C@@]2(C)C(C)(C)O)cc1OCC1CC1 [Example 2, 1-[4-(S)-(3-Cyclopropylmethoxy-4-methoxyphenyl)-3-(1-hydroxy-1-methylethyl)-3-(S)-methylpyrrolidin-1-yl]-2-hydroxyethanone] | 5.72 | 
17 | COc1ccc([C@@H]2CN(C(=O)C(C)(C)OC(C)=O)C[C@@]2(C)[C@@H](C)O)cc1OC1CCCC1 [Example 70, 2-(3-((1R)-1-Hydroxyethyl)(3S,4S)-4-(3-cyclopentyloxy-4-methoxyphenyl) -3-methylpyrrolidinyl]-1,1-dimethyl-2-oxoethyl acetate] | 6.26 | 
18 | COC(=O)N1C[C@@H](c2ccc(OC)c(OC3Cc4ccccc4C3)c2)[C@](C)(C(C)O)C1 (some centres unmarked) [Sample No. 61] |  | pEC50 [1]: 7.24; Mouse/TNFα ED50 [2]: 0.2 mg/kg; CNS Side Effects [3]: Little to no effect (at 50 mg/kg); pIC50 ([4]; human recombinant PDE4): 7.74; pIC50 ([4]; stereoisomer comparison table): 7.74
19 | COC(=O)N1CC(c2ccc(OC)c(OC3CCCC3)c2)[C@@](C)([C@@H](C)O)C1 (some centres unmarked) [(B)] |  | ED50 ([2]; Mus musculus, read-out: Mouse/TNFα ED50): 12 mg/kg; CNS Side Effects [3]: No effect; pIC50 ([4]; stereoisomer comparison table): 7.21
20 | COc1ccc([C@@H]2CN(C(=O)C(N)=O)C[C@@]2(C)[C@@H](C)O)cc1OCC#Cc1ccccc1 [Example 75, 2-{(3S,4S)-3-((R)-1-Hydroxyethyl)-4-[4-methoxy-3-(3-phenylprop-2-ynyloxy)-phenyl]-3-methylpyrrolidin-1-yl}-2-oxo-acetamide] | 6.92 | 
21 | COc1ccc([C@@H]2CN(C(=O)C(O)c3ccccc3)CC2(C)[C@@H](C)O)cc1OC1CCCC1 (stereo in doubt) [Example 63, 1-((3R)-3-((1R)-1-Hydroxyethyl)-4-(3-cyclopentyloxy-4-methoxyphenyl)-3-methylpyrrolidinyl]-2-hydroxy-2-phenylethan-1-one] | 6.57 | 
